Assay results from US6524820B1, “Lectins and coding sequences” (University of Georgia Research Foundation, Inc., priority 1997, dated 2003).

What was measured:
[1] = test system: recombinant XL35; assay: Inhibition of XL35 erythrocyte agglutination activity; assay type: cell-based, Xenopus laevis; conditions: 2 M urea
Procedure: The assay was performed essentially as described using trypsinized, glutaraldehyde-fixed rabbit erythrocytes [Barondes and Roberson (1987) Methods Enzymol. 138, 516-20] in TCS buffer (10 mM Tris, pH 7.6, 10 mM CaCl2, 150 mM NaCl). To compare the agglutination properties of both the purified and recombinant lectins, the two lectins were assayed under similar conditions. Because the eluted recombinant lectin was in 8 M urea, a solution of purified non-recombinant lectin was also brought to 8 M with a concentrated urea solution. The agglutination assay was performed using […] of either recombinant or native XL35 lectin in […] TCS and 8 M urea was added to wells of a 96-well microtiter plate. Next, […] of TCS alone or TCS containing 0.4 M EDTA or 1.0 M melibiose or 1.0 M sucrose was added to the wells and mixed with the lectin solution. To this solution, 50 ml of a 1:1 suspension of trypsinized, glutaraldehyde-fixed rabbit erythrocytes in TCS was added and the contents of the wells were mixed by trituration. The final concentration of urea in the wells was 2 M, while that of EDTA was 0.10 M and that of melibiose and sucrose were 0.25 M. Agglutination activity was scored after 1.5 hr. at room temperature using an inverted microscope on low power. After 1.5 hr in TCS plus 2 M urea, the purified oocyte lectin retained about 25-50% of the agglutination activity observed when it was assayed in TCS alone, but the relative abilities of various sugars to inhibit the agglutination reaction were similar in the presence or absence of urea. The recombinant lectin precipitated in the absence of urea; therefore, at least 2 M urea was used in the agglutination assay.

[2] = test system: recombinant XL35; conditions: in the presence of Ca++; literature (Clark 1987); cited from earlier work

| SMILES | inhibition of recombinant XL35 agglutination activity ([1]; inhibitor at 0.1 M) | inhibition of recombinant XL35 agglutination activity ([1]; inhibitor at 0.25 M) | inhibition of agglutination of trypsinized rabbit erythrocytes by frog oocyte lectins [2] |
| --- | --- | --- | --- |
| O=C(O)CN(CCN(CC(=O)O)CC(=O)O)CC(=O)O [EDTA] | completely inhibited |  |  |
| OC[C@H]1O[C@H](OCC2O[C@@H](O)[C@H](O)[C@@H](O)[C@@H]2O)[C@H](O)[C@@H](O)[C@H]1O (stereo partly shown) [melibiose] |  | completely inhibited | strongly inhibited |
| OC[C@H]1O[C@@](CO)(O[C@H]2O[C@H](CO)[C@@H](O)[C@H](O)[C@H]2O)[C@@H](O)[C@@H]1O [sucrose] |  | not |  |
